Reference: patent US20100168085A1, “Dopamine and agonists and antagonists thereof for modulation of suppressive activity of CD4+CD25+ regulatory T cells” (YESA RESEARCH AND DEVELOPMENT CO. LTD. at the Weizmann …, priority 2003, published 2010)
“And” between values parts separate entries of the source, which are not always exact repeats. Identical values can stand only once. “Also recorded” adds a separate entry of the source. Marks after values point to notes of the source that are not given here. Where no end group is shown, it is not given here.

Key:
[1] = tested on: phospho-ERK1/2 in Treg and Teff; experiment: ERK1/2 phosphorylation (intracellular FACS staining, Western blot); assay type: cell-based, mouse; settings: activation with anti-CD3 and anti-CD28 for 20 min
Description: (ix) FACS analysis of intracellular labeling of phosphorylated form of ERK. T-cell subpopulations were fixed in 1.5% formaldehyde for 10 min at room temperature, washed, resuspended with vortexing in cold 100% methanol, and incubated for 1 h at 4° C. The cells were then washed with PBS containing 1% bovine serum albumin (BSA) and resuspended in 100 μL of PBS/BSA, and 12.5 μL of anti-phosphoERK1 & 2 (BioSource) was added for 20 min at room temperature. The cells were then washed, resuspended in PBS, and analyzed by FACSCalibur (Becton-Dickinson). As a negative control we incubated the phospho-peptide for 20 min with its antibody and then added the mixture to T cells.
(xix) Western blotting. Cells were stimulated for 20 min with anti-CD3 and anti-CD28 antibodies in the presence or absence of dopamine or SKF-38393. Cell lysates were prepared using RIPA lysis buffer (50 mM Tris, pH 8; 0.1% SDS; 0.5% deoxycholate; 1% NP40; 500 mM NaCl; 10 mM MgCl2) and were then kept on ice for 10 min before being vortexed and centrifuged. Supernatants were collected and 5× sample buffer (containing 25 mM Tris pH 6.8, 2% sodium dodecyl sulfate (SDS), 10% glycerol, 0.1% bromophenol blue, 0.5 M β-mercaptoethanol) was added prior to boiling. Cell extracts were separated by SDS-PAGE (10% polyacrylamide), and blotted onto nitrocellulose. Activated ERK1/2 was detected by probing blots with a 1:30,000 dilution of monoclonal antibody. Total ERK protein was detected by using a 1:10,000 dilution of a polyclonal rabbit antibody. The blots were developed by horseradish peroxidase-conjugated anti-mouse or anti-rabbit Fab and ECL (Amersham). Signals were quantified using NIH Image 1.62.
Treg were activated for 20 min in the presence or absence of dopamine (10^−5 M), and were then subjected to intracellular phosphoprotein staining (Perez and Nolan 2002) and analyzed by flow cytometry. […] As a measure of the background nonspecific staining of the phosphorylated ERK we used a specific peptide of phospho-ERK, which competes for binding of the antibody. The intracellular staining procedure for phospho-ERK detection by FACS was validated by the use of Teff incubated with 20 μM phorbol 12-myristate 13-acetate (PMA), known to stimulate the activity of protein kinase C (PKC) (data not shown).

Treg = Treg apoptosis (propidium iodide sub-G1, annexin V, FACS); assay type: cell-based, mouse; settings: Treg incubated with compound
Description: (viii) FACS analysis of annexin V-positive regulatory T cells. PE-stained CD25^+ cells were stained for annexin V-FITC according to the manufacturer's instructions. The cells were scored as described above, and CD25^+ lymphocytes were then gated for analysis of annexin V-positive cells.
(xv) Propidium iodide staining. Cells were fixed in cold ethanol 80% and treated with RNAse. Propidium iodide was then applied, and cell samples were assessed by FACSort.

[2] = tested on: mouse solid melanoma tumor cells M2R; experiment: M2R melanoma tumor development in mice; assay type: in vivo
Description: To verify the effect of dopamine and its related compounds on tumor growth, C57BL mice were injected with the specific D1-R agonist SKF-38393 (3.3 mg/kg) immediately after inoculation of mouse solid melanoma tumor cells M2R. The experimental group (n=10) received a single injection of SKF-38393, and a control group (n=11) was injected with PBS.
To further isolate the effect of dopamine on the immune system, C57BL mice (n=10) and SCID mice (n=8) were injected with SKF-38393 (3.3 mg/kg) immediately after injecting them with solid tumor cells M2R (FIG. 9c).

[3] = tested on: mice, glutamate-induced retinal ganglion cell death; experiment: Intravitreal glutamate toxicity, retinal ganglion cell survival; assay type: in vivo, mouse; settings: for Changes in neuronal survival in treated relative to untreated mice (mean±SEM): systemic injection immediately after glutamate intoxication
Description: (iii) Intravitreal glutamate injection. The right eyes of anesthetized mice were punctured with a 27-gauge needle in the upper part of the sclera, and a 10-μL Hamilton syringe with a 30-gauge needle was inserted as far as the vitreal body. A total volume of 1 μl, of L-glutamate (400 nmol) dissolved in saline was injected into the eye.
(iv) Retrograde labeling of retinal ganglion cells. Mice were anesthetized and placed in a stereotactic device. The skull was exposed and kept dry and clean. The bregma was identified and marked. The designated point of injection was at a depth of 2 mm from the brain surface, 2.92 mm behind the bregma in the anteroposterior axis and 0.5 mm lateral to the midline. A window was drilled in the scalp above the designated coordinates in the right and left hemispheres. The neurotracer dye FluoroGold (5% solution in saline; Fluorochrome, Denver, Colo.) was applied (1 μL, at a rate of 0.5 μL/min in each hemisphere) using a Hamilton syringe, and the skin over the wound was sutured.
(xxi) Assessment of mouse retinal ganglion cell survival. Mice were given a lethal dose of pentobarbitone (170 mg/kg). Their eyes were enucleated and the retinas were detached and prepared as flattened whole mounts in 4% paraformaldehyde solution. Labeled cells from 4-6 selected fields of identical size (0.7 mm^2) were counted. The selected fields were located at approximately the same distance from the optic disk (0.3 mm) to overcome the variation in RGC density as a function of distance from the optic disk. Fields were counted under the fluorescence microscope (magnification ×800) by observers blinded to the identity of the retinas. The average number of RGCs per field in each retina was calculated.
Injection of glutamate into the eyes of adult mice causes retinal ganglion cell death that is measurable 1 week after the injection (Mizrahi et al., 2002; Schori et al., 2001a; Katayama et al., 1990). We injected Balb/c mice intraperitoneally (i.p.) with the dopamine, or its specific D1-type agonist SKF-38393 (3.3 mg/kg), or its specific D1-type antagonist SCH-23390 (3 mg/kg), immediately after their exposure to glutamate toxicity. We also injected SCID Balb/c mice with SKF-38393 (3.3 mg/kg) immediately after glutamate intoxication.
Immediately after glutamate intoxication mice were systemically injected with the indicated drugs. Neuronal survival was determined ten days later (see Materials and Methods). The results are expressed by changes (in percentage) in neuronal survival in treated mice relative to untreated mice. Each value represents a mean±SEM of a group of at least 5 animals, and each experiment was performed at least twice, independently. Asterisks (***, P<0.001; **, P<0.01) indicate statistical significance of the presented data from a single experiment using a Student's T-test statistical analysis. (NT—not tested; ns—no statistical significance).

[4] = tested on: mice, glutamate-induced retinal ganglion cell death; experiment: as above; assay type: in vivo, mouse; settings: retinas excised 7 days afterwards
[5] = tested on: suppressive activity of CD4+CD25+ regulatory T cells (Treg) on Teff proliferation; experiment: Inhibition assay (co-culturing of Teff with Treg), [3H]-thymidine incorporation; assay type: cell-based, mouse; settings: for Suppressive activity of Treg on Teff, kinase inhibitor treatment: activated Treg incubated with inhibitor; for Effect on ability of Treg to suppress Teff proliferation: Treg preincubated with different concentrations
Description: (xvi) Activation of CD4^+CD25^+ regulatory T cells. Purified regulatory T cells (Treg; 0.5×10^6 cells/mL) were activated in RPMI medium supplemented with L-glutamine (2 mM), 2-mercaptoethanol (5×10^−5 M), sodium pyruvate (1 mM), penicillin (100 IU/mL), streptomycin (100 μg/mL), nonessential amino acids (1 mL/100 mL), and autologous serum 2% (vol/vol) in the presence of mrIL-2 (5 ng/mL) and soluble anti-CD3 antibodies (1 ng/mL). Irradiated (2500 rad) splenocytes (1.5×10^6 cells/mL) were added to the culture. Cells were activated for 24 or 96 h. In some of the 96-h experiments, fresh dopamine was added to the culture every 24 h during activation.
(xvii) Inhibition assay (co-culturing of Teff with Treg). Naïve effector T cells (Teff; 50×10^3 cells/well) were co-cultured with decreasing numbers of activated Treg for 72 h in 96-well flat-bottomed plates in the presence of irradiated splenocytes (10^6/mL) supplemented with anti-CD3 antibodies. [^3H]-thymidine (1 μCi) was added for the last 16 h of culture. After the cells were harvested, their [^3H]-thymidine content was analyzed by the use of […].
In this experiment, we examined whether dopamine acts on Treg and alters their suppressive effect on Teff. Suppression of proliferation of Teff, assayed by [^3H]thymidine incorporation, was used as a measure of suppressive effect of Treg (Thornton and Shevach, 1998).
Shevach, 1998, 2000). Inhibition of Treg proliferation, assayed by [^3H]thymidine incorporation, can therefore be taken as a measure of the suppressive effect. We examined the ability of major neurotransmitters and neuropeptides (dopamine, norepinephrine, substance P, and serotonin) to alleviate the Treg-induced suppression of Teff in vitro. Each compound was tested at several concentrations. […] After incubating the activated Treg for 2 h with a neurotransmitter or a neuropeptide, we washed the cells and then co-cultured them with Teff.

[6] = tested on: adhesion of Treg and Teff to chondroitin sulfate proteoglycans (CSPG); experiment: T cell adhesion to CSPG; assay type: cell-based, mouse
Description: (xiii) T cell adhesion. Adhesion of activated CD4^+CD25^+ and CD4^+CD25^− T cells to CSPG was analyzed as previously described (23). Briefly, flat-bottomed microtiter (96-well) plates were pre-coated with CSPG (1 μg/well, 40 min, 37° C.). ^51Cr-labeled T cells were left untreated or were pre-incubated (30 min, 37° C.) with dopamine or the specified agonist or antagonist (10^−5M). The cells (10^5 cells in 100 μL of RPMI containing 0.1% BSA) were then added to the CSPG-coated wells, incubated (30 min, 37° C.), and washed. Adherent cells were lysed and the resulting supernatants were removed and counted in a γ-counter. Results were expressed as the mean percentage of the total population before adhesion of bound T cells from quadruplicate wells for each experimental group.
One of the main features of T cells is their ability to migrate to tissues in need of rescue or repair [such as diseased or damaged CNS (Hickey, 1999; Flugel et al., 2001). […] We therefore incubated Treg with dopamine for 2 h and then examined their adhesion to chondroitin sulfate proteoglycans (CSPG), extracellular matrix proteins often associated with injured tissues (Jones et al., 2003).
To verify that the effect of dopamine on adhesion of Treg is exerted through the ERK1/2 pathway, we incubated Treg with the ERK1/2 signaling pathway inhibitor PD98059 before carrying out the adhesion assay. […] Since interaction of T cells with CSPG is mediated in part by the CD44 receptor (Henke et al., 1996), and in light of the known dependence of CD44 expression on the ERK signaling pathway, it was conceivable that dopamine might affect the expression of CD44 in Treg.

With `Oc1cc2c(cc1O)C(c1ccccc1)CNCC2` (racemic) [SKF-38393, (+/−)-1-Phenyl-2,3,4,5-tetrahydro-(1H)-3-benzazepine-7,8-diol.HC1] the “Phospho-ERK1/2 in activated Treg, Western blot” value [1] was “reduced”, the “Apoptosis, annexin V staining for phosphatidylserine” value (Treg) was “No increase in annexin V-labeled cells” and the Tumor development ([2]; C57BL mice, single injection 3.3 mg/kg immediately after M2R inoculation) was “significantly attenuated”. For the same compound, the Tumor development ([2]; SCID mice, 3.3 mg/kg immediately after M2R inoculation) was “No effect”, the “Increase in neuronal survival relative to PBS-treated glutamate-injected controls” value ([3]; Balb/c, single i.p. injection, dopamine 0.4 mg/kg, SKF-38393 3.3 mg/kg) was 19±3.2% and the “Effect on neuronal survival in immune-deficient mice” value ([3]; SCID Balb/c, 3.3 mg/kg) was “no effect; also recorded: lack of effect”. For the same compound, the “Changes in neuronal survival in treated relative to untreated mice (mean±SEM)” value ([3]; SCID mice) was 3 ± 1.8 (ns) percentage, the “Changes in neuronal survival in treated relative to untreated mice (mean±SEM)” value ([3]; Wild type mice) was 19 ± 3.2** percentage and the “Neuronal survival compared to vehicle-injected mice” value ([4]; 0.33 mg/kg i.v.) was “neuroprotective trend, however not significant”. The “Neuronal survival compared to vehicle-injected mice” value ([4]; 3.3 mg/kg i.v.) was “significant increase in neuronal survival”, the “Effect on suppressive activity of Treg, compound alone” value ([5]; 10^−5 M) was “reproduced the dopamine effect” and the “Adhesion of Treg to CSPG” value ([6]; dopamine 10^−9-10^−5 M, concentration-dependent, agonist 10^−5 M) was “mimicked”.
`COc1cccc(-c2cc(=O)c3ccccc3o2)c1N` [PD98059] was tested, and the “Suppressive activity of Treg on Teff, kinase inhibitor treatment” value [5] was “significantly reduced the suppressive activity; also recorded: almost completely abolished their suppression” and the “Adhesion of Treg to CSPG after ERK1/2 pathway inhibitor” value ([6]; Treg incubated with PD98059 before assay) was “significantly reduced”.
For `O=c1c(-c2ccc(O)cc2)coc2cc(O)cc(O)c12` [genistein, 4′,5,7-trihydroxy isoflavone], the “Suppressive activity of Treg on Teff, kinase inhibitor treatment” value [5] was “blocked the suppressive activity”, the “Proliferation of Treg themselves” value ([5]; in the presence of genistein) was “underwent proliferation themselves” and the “Proliferation of Teff” value ([5]; same concentration as used on Treg) was “had no effect”.
With `CN1CCc2cc(Cl)c(O)cc2[C@@H](c2ccccc2)C1` [SCH-23390] the “Decrease in neuronal survival relative to PBS-injected mice” value ([3]; Balb/c, SCH-23390 3 mg/kg i.p., 3 mg/kg) was 11±1.5% and 11% and the “Changes in neuronal survival in treated relative to untreated mice (mean±SEM)” value ([3]; Wild type mice) was −11 ± 1.5** percentage.
With `NC[C@H](O)c1ccc(O)c(O)c1` [norepinephrine] the “Effect on suppressive activity of Treg” value ([5]; 10^−5 or 10^−7 M for 2 h after 24 h activation) was “did not affect the suppressive activity of Treg” and the “Effect on ability of Treg to suppress Teff proliferation” value (“Effect on ability of Treg” for short) [5] was “no effect”.
`NCCc1c[nH]c2ccc(O)cc12` [serotonin] was tested, and the “Effect on ability of Treg” value [5] was “no effect”.
“substance P: a pain- and stress-related neurotransmitter (neuropeptide) (RPKPQQFFGLM-NH2; UniProt P20366 58-68, looked up)” was tested, and the “Effect on ability of Treg” value [5] was “no effect”.
